Experiments:
[1] = as reported in Japanese Patent Public Disclosure No. 25323/84; cited from earlier work
[2] = tested on: rats; assay: Acute toxicity to rats; format: in vivo
[3] = tested on: DOCA-salt hypertension rats; assay: Blood pressure by tail-cuff method in DOCA-salt hypertension rats; format: in vivo, Sprague-Dawley rats; conditions: BH4 10 mg/kg b.w./day orally
Description: One kidney was removed from each of 8-week-old Sprague-Dawley rats (supplied from Charles River) except for a control group. […] Blood pressure was measured by the tail-cuff method at the start of experiment and 2, 4 and 5 weeks.

[4] = tested on: DOCA-salt hypertension rats; assay: NO2/NO3 in urine (Griess method) in DOCA-salt hypertension rats; format: in vivo, Sprague-Dawley rats; conditions: BH4 10 mg/kg b.w./day orally
Description: One kidney was removed from each of 8-week-old Sprague-Dawley rats (supplied from Charles River) except for a control group. […] The measurement was carried out using Nitrate-Nitrite assay kit, (kit No. 780001, Cyman Chemical Company) according to the Griess method. The values of NO2/NO3 in urine means the activity of NOS, namely, higher the value, higher the activity.

[5] = tested on: DOCA-salt hypertension rats; assay: Biopterin (BP) in urine by HPLC in DOCA-salt hypertension rats; format: in vivo, Sprague-Dawley rats; conditions: BH4 10 mg/kg b.w./day orally
Description: (§1) One kidney was removed from each of 8-week-old Sprague-Dawley rats (supplied from Charles River) except for a control group.

[6] = Body weight of DOCA-salt hypertension rats; format: in vivo, Sprague-Dawley rats; conditions: for Body weight: DOCA-salt hypertension rats, BH4 10 mg/kg b.w./day orally
Description: as §1

[7] = tested on: endothelial NOS (e-NOS); assay: Immunostaining of renal tissue NOS (anti-e-NOS antibody); format: in vivo, Sprague-Dawley rats; conditions: renal tissues, DOCA-salt hypertension rats, BH4 10 mg/kg b.w./day orally, end of observation (5 weeks)
Description: as §1
(§2) The expression of endothelial NOS (e-NOS) and brain NOS (b-NOS) in renal tissues was examined in the sections of the isolated frozen renal tissues by immunostaining with anti-e-NOS and anti-b-NOS antibodies (Affinity Bioreagents), respectively.

[8] = tested on: brain NOS (b-NOS); assay: Immunostaining of renal tissue NOS (anti-b-NOS antibody); format: in vivo, Sprague-Dawley rats; conditions: renal tissues, DOCA-salt hypertension rats, BH4 10 mg/kg b.w./day orally, end of observation (5 weeks)
Description: as §1, §2

[9] = tested on: e-NOS mRNA; assay: Measurement of NOS mRNA expression in renal tissues (RT-PCR, Southern hybridization); format: in vivo, Sprague-Dawley rats; conditions: renal cortex, DOCA+BH4 group as compared with DOCA group, normalized against MDH, FIG. 4
Description: as §1
Extraction of RNA from renal tissues was performed by the guanidium/cesium chloride extraction method.
Namely, a small amount of tissues collected from renal cortex of the isolated kidney was added immediately to a lysis solution 4M guanidinium thiocyanate and homogenized by a glass/Teflon homogenizer. This lysate was overlaid on 5.7M cesium chloride and centrifuged at 80,000 rpm for 2 hours, then the precipitate was dissolved in 0.1% diethyl pyrocarbonate (DEP) solution. This solution was precipitated with 2.5M ammonium acetate and ethanol at −20° C. for one hour and centrifuged at 10,000 rpm at 4° C. for 20 minutes to give a precipitate. […]
Specifically, the RT reaction solution was added to a mixture of 5′- and 3′-primers for each of e-NOS to be detected and for malate dehyadrogenase (MDH) used as an internal standard, PCR buffer, 2.5 mM dNTP mixed solution and Taq DNA polymerase. […]
PCR products were electrophoresed on 5% polyacrylamide gel and NOS mRNA expression was measured by Southern hybridization.
Specifically, the PCR reaction solution was electrophoresed on 5% polyacrylamide and then, the gel was transferred to membrane filters. […] Then, autoradiography was run at −70° C. for several hours and the exposed autoradiograms were analyzed by a densitometer. […]

[10] = tested on: DOCA-salt SHRs; assay: Blood pressure by tail-cuff method in DOCA-salt SHR; format: in vivo; conditions: BH4 10 mg/kg b.w./day orally
Description: Blood pressure was measured by the tail-cuff method at the start of experiments and after 2, 3, 4, 5 and 6 weeks.

[11] = tested on: DOCA-salt SHRs; assay: Histopathological findings in renal tissues of DOCA-salt SHR; format: in vivo
Description: After collecting urine and measuring blood pressure at 6 weeks, the animals was incised under anesthesia, exsanguinated from abdominal aorta and perfused with physiological saline via this site. The isolated kidney was fixed in a 10% formaldehyde solution, embedded in paraffin, then sliced to 4 μm in thickness by a microtome. Samples were stained with hematoxylin/eosin (HE) and periodic acid-Shiff. The incidences of histopathological findings on necrotizing glomerulitis and necrotizing arteriolitis were compared among the groups.

[12] = tested on: DOCA-salt SHRs; conditions: in vivo, po, 10 mg/kg/day
Description: One kidney was removed from 8-week old SHRs (supplied from Charles River) except for a control group. Then, the animals were divided into the following three experimental groups. • 1) A group given drinking water only (control group); sample size n=8; • 2) A group of DOCA-salt SHRs prepared by giving 30 mg/kg b.w. of deoxycorticosterone acetate (DOCA) subcutaneously once a week and 1% saline as drinking water from one week after nephrectomy (DOCA group); n 4; • 3) A group of DOCA-salt SHRs administered BH4 (10 mg/kg b.w./day) orally (DOCA+BH4 group); n=6.
Urine was collected for 24 hours using a metabolic cage at the start of experiment and after 2, 3, 4, 5 and 6 (at the termination of the observation period) weeks. At the termination of the observation period, blood sample was collected from abdominal aorta under anesthesia with Phenobarbital.
Biopterin (BP), a metabolite of BH4, was measured by a HPLC according to the procedure of Fukushima and Nixon. The effects of BH4 administration are evaluated on the basis of change of BP level in urine.
The measured values were expressed as means±standard error and evaluated statistically using two-way ANOVA test. In the following analyses, the significant level sets p<0.05.

[13] = until termination of observation period
[14] = BH4 10 mg/kg b.w./day orally, kidney at 6 weeks

Q: For `C[C@H](O)[C@H](O)C1CNc2nc(N)[nH]c(=O)c2N1` (stereo partly drawn) [(6R,S)-5,6,7,8-tetrahydrobiopterin], which toxicity [1] is on record?
A: Its toxicity is “only slightly toxic”.

Q: With `C[C@H](O)[C@H](O)[C@H]1CNc2[nH]c(N)nc(=O)c2N1.Cl.Cl` [BH4 dihydrochloride] as the compound, how does the acute toxicity [2] read?
A: Its acute toxicity is “more than 2 g/kg (b.w.)”.

Q: Which Blood pressure ([3]; Start) does the source give for `CC(O)C(O)C1CNc2nc(N)[nH]c(=O)c2N1` [BH4, (6R)-L-erythro-5,6,7,8-tetrahydrobiopterin] here?
A: Its Blood pressure is 105.72 mmHg.

Q: What about the Blood pressure ([3]; Week 2) of the same compound?
A: Its Blood pressure is 120.54 mmHg.

Q: And the Blood pressure ([3]; Week 4)?
A: Its Blood pressure is 111.91 mmHg.

Q: And the Blood pressure ([3]; Week 5)?
A: Its Blood pressure is 107.78 mmHg.

Q: What about the “Change of blood pressure (in words)” value [3, 13] of the same compound?
A: The value was “stayed at normal blood pressures”.

Q: What about the “Change of NO2/NO3 in urine (in words)” value [4] of the same compound?
A: Its value is “showed an increase in the value”.

Q: What about the NO2/NO3 in urine ([4]; Start) of the same compound?
A: Its NO2/NO3 in urine is 2.22 ± 0.7 µmol/day.

Q: What about the NO2/NO3 in urine ([4]; Week 4) of the same compound?
A: The NO2/NO3 in urine was 2 ± 0.55 µmol/day.

Q: And the NO2/NO3 in urine ([4]; Week 5)?
A: The NO2/NO3 in urine was 5.95 ± 1.9 µmol/day.

Q: And the “Change of BP in urine (in words)” value [5]?
A: The value was “showed an increase in the value of BP with time”.

Q: And the Body weight ([6]; Start)?
A: The Body weight was 383.40 g.

Q: And the Body weight ([6]; Week 2)?
A: Its Body weight is 386.40 ± 12.84 g.

Q: And the Body weight ([6]; Week 4)?
A: The Body weight was 431.20 ± 13.31 g.

Q: And the Body weight ([6]; Week 5)?
A: The Body weight was 446.80 ± 15.81 g.

Q: What about the “Body weight (in words)” value ([6]; control, DOCA and DOCA+BH4 groups compared) of the same compound?
A: The value was “no significant difference”.

Q: And the “expression of e-NOS in small vessels (immunostaining)” value [7]?
A: Its value is “comparable to the control group or slightly enhanced”.

Q: And the “expression of b-NOS in macula densa (immunostaining)” value [8]?
A: Its value is “comparable to the control group or slightly enhanced”.

Q: What about the “expression of e-NOS mRNA” value [9] of the same compound?
A: The value was “significantly enhanced”.

Q: And the Blood pressure ([10]; Start)?
A: The Blood pressure was 130.22 mmHg.

Q: What about the Blood pressure ([10]; Week 2) of the same compound?
A: The Blood pressure was 133.60 mmHg.

Q: What about the Blood pressure ([10]; Week 3) of the same compound?
A: The Blood pressure was 143.63 mmHg.

Q: What about the Blood pressure ([10]; Week 4) of the same compound?
A: Its Blood pressure is 150.90 mmHg.

Q: What about the Blood pressure ([10]; Week 5) of the same compound?
A: The Blood pressure was 159.30 mmHg.

Q: What about the Blood pressure ([10]; Week 6) of the same compound?
A: The Blood pressure was 162.95 mmHg.

Q: And the “Change of blood pressure (in words)” value [10, 13]?
A: The value was “showed the same blood pressures level as that of the control group”.

Q: What about the “Percentage (%) of incidences of histopathological findings in renal tissues: Necrotizing angiitis” value [11, 14] of the same compound?
A: The value was 3.34 ± 0.94%.

Q: And the “Percentage (%) of incidences of histopathological findings in renal tissues: Necrotizing glomerulitis” value [11, 14]?
A: Its value is 2.47 ± 1.07%.

Q: What about the “Histopathological findings (in words)” value ([11]; oral administration of BH4) of the same compound?
A: Its value is “remarkably improved histopathological findings”.

Q: And the “Change of BP in urine (in words)” value [12]?
A: Its value is “showed an increase in the value of BP with time”.

— patent US7820667B2, “Methods of treating hypertension” (Daiichi Sankyo Company, Limited, priority 2005, dated 2010)
